Measurements taken from ChEMBL document CHEMBL5154747, “Discovery of new carbonic anhydrase IX inhibitors as anticancer agents by toning the hydrophobic and hydrophilic rims of the active site to encounter the dual-tail approach” (Eur J Med Chem, 2022).

Test system: U-251
Assay: Anticancer activity against human U-251 cells assessed as cell growth inhibition at 10 uM incubated for 48 hrs by SRB assay relative to control
Format: functional
Conditions: read-out: GI

| Compound | inhibition of growth at 10 µM [%] |
| --- | --- |
| CN(C)c1ccc(/C=N/Nc2nc(Nc3ccccc3)nc(Nc3ccc(S(N)(=O)=O)cc3)n2)cc1 | 32 |

Test system: LOX IMVI
Assay: Anticancer activity against human LOX IMVI cells assessed as cell growth inhibition at 10 uM incubated for 48 hrs by SRB assay relative to control
Format: functional
Conditions: read-out: GI

| Compound | inhibition of growth at 10 µM [%] |
| --- | --- |
| CN(C)c1ccc(/C=N/Nc2nc(Nc3ccccc3)nc(Nc3ccc(S(N)(=O)=O)cc3)n2)cc1 | 31 |

Test system: Malme-3M
Assay: Anticancer activity against human Malme-3M cells assessed as cell growth inhibition at 10 uM incubated for 48 hrs by SRB assay relative to control
Format: functional
Conditions: read-out: GI

| Compound | inhibition of growth at 10 µM [%] |
| --- | --- |
| CN(C)c1ccc(/C=N/Nc2nc(Nc3ccccc3)nc(Nc3ccc(S(N)(=O)=O)cc3)n2)cc1 | 25 |

Test system: SK-MEL-28
Assay: Anticancer activity against human SK-MEL-28 cells assessed as cell growth inhibition at 10 uM incubated for 48 hrs by SRB assay relative to control
Format: functional
Conditions: read-out: GI

| Compound | inhibition of growth at 10 µM [%] |
| --- | --- |
| CN(C)c1ccc(/C=N/Nc2nc(Nc3ccccc3)nc(Nc3ccc(S(N)(=O)=O)cc3)n2)cc1 | 10 |

Test system: SK-MEL-5
Assay: Anticancer activity against human SK-MEL-5 cells assessed as cell growth inhibition at 10 uM incubated for 48 hrs by SRB assay relative to control
Format: functional
Conditions: read-out: GI

| Compound | inhibition of growth at 10 µM [%] |
| --- | --- |
| CN(C)c1ccc(/C=N/Nc2nc(Nc3ccccc3)nc(Nc3ccc(S(N)(=O)=O)cc3)n2)cc1 | 14 |

Test system: UACC-62
Assay: Anticancer activity against human UACC-62 cells assessed as cell growth inhibition at 10 uM incubated for 48 hrs by SRB assay relative to control
Format: functional
Conditions: read-out: GI

| Compound | inhibition of growth at 10 µM [%] |
| --- | --- |
| CN(C)c1ccc(/C=N/Nc2nc(Nc3ccccc3)nc(Nc3ccc(S(N)(=O)=O)cc3)n2)cc1 | < 10 |

Test system: IGROV-1
Assay: Anticancer activity against human IGROV-1 cells assessed as cell growth inhibition at 10 uM incubated for 48 hrs by SRB assay relative to control
Format: functional
Conditions: read-out: GI

| Compound | inhibition of growth at 10 µM [%] |
| --- | --- |
| CN(C)c1ccc(/C=N/Nc2nc(Nc3ccccc3)nc(Nc3ccc(S(N)(=O)=O)cc3)n2)cc1 | 28 |

Test system: OVCAR-3
Assay: Anticancer activity against human OVCAR-3 cells assessed as cell growth inhibition at 10 uM incubated for 48 hrs by SRB assay relative to control
Format: functional
Conditions: read-out: GI

| Compound | inhibition of growth at 10 µM [%] |
| --- | --- |
| CN(C)c1ccc(/C=N/Nc2nc(Nc3ccccc3)nc(Nc3ccc(S(N)(=O)=O)cc3)n2)cc1 | 14 |

Test system: OVCAR-5
Assay: Anticancer activity against human OVCAR-5 cells assessed as cell growth inhibition at 10 uM incubated for 48 hrs by SRB assay relative to control
Format: functional
Conditions: read-out: GI

| Compound | inhibition of growth at 10 µM [%] |
| --- | --- |
| CN(C)c1ccc(/C=N/Nc2nc(Nc3ccccc3)nc(Nc3ccc(S(N)(=O)=O)cc3)n2)cc1 | < 10 |

Test system: OVCAR-8
Assay: Anticancer activity against human OVCAR-8 cells assessed as cell growth inhibition at 10 uM incubated for 48 hrs by SRB assay relative to control
Format: functional
Conditions: read-out: GI

| Compound | inhibition of growth at 10 µM [%] |
| --- | --- |
| CN(C)c1ccc(/C=N/Nc2nc(Nc3ccccc3)nc(Nc3ccc(S(N)(=O)=O)cc3)n2)cc1 | 31 |

Test system: SK-OV-3
Assay: Anticancer activity against human SK-OV-3 cells assessed as cell growth inhibition at 10 uM incubated for 48 hrs by SRB assay relative to control
Format: functional
Conditions: read-out: GI

| Compound | inhibition of growth at 10 µM [%] |
| --- | --- |
| CN(C)c1ccc(/C=N/Nc2nc(Nc3ccccc3)nc(Nc3ccc(S(N)(=O)=O)cc3)n2)cc1 | < 10 |

Test system: 786-0
Assay: Anticancer activity against human 786-0 cells assessed as cell growth inhibition at 10 uM incubated for 48 hrs by SRB assay relative to control
Format: functional
Conditions: read-out: GI

| Compound | inhibition of growth at 10 µM [%] |
| --- | --- |
| CN(C)c1ccc(/C=N/Nc2nc(Nc3ccccc3)nc(Nc3ccc(S(N)(=O)=O)cc3)n2)cc1 | 31 |

Test system: ACHN
Assay: Anticancer activity against human ACHN cells assessed as cell growth inhibition at 10 uM incubated for 48 hrs by SRB assay relative to control
Format: functional
Conditions: read-out: GI

| Compound | inhibition of growth at 10 µM [%] |
| --- | --- |
| CN(C)c1ccc(/C=N/Nc2nc(Nc3ccccc3)nc(Nc3ccc(S(N)(=O)=O)cc3)n2)cc1 | 15 |

Test system: CAKI-1
Assay: Anticancer activity against human CAKI-1 cells assessed as cell growth inhibition at 10 uM incubated for 48 hrs by SRB assay relative to control
Format: functional
Conditions: read-out: GI

| Compound | inhibition of growth at 10 µM [%] |
| --- | --- |
| CN(C)c1ccc(/C=N/Nc2nc(Nc3ccccc3)nc(Nc3ccc(S(N)(=O)=O)cc3)n2)cc1 | < 10 |

Test system: RXF 393
Assay: Anticancer activity against human RXF 393 cells assessed as cell growth inhibition at 10 uM incubated for 48 hrs by SRB assay relative to control
Format: functional
Conditions: read-out: GI

| Compound | inhibition of growth at 10 µM [%] |
| --- | --- |
| CN(C)c1ccc(/C=N/Nc2nc(Nc3ccccc3)nc(Nc3ccc(S(N)(=O)=O)cc3)n2)cc1 | 35 |

Test system: SN12C
Assay: Anticancer activity against human SN12C cells assessed as cell growth inhibition at 10 uM incubated for 48 hrs by SRB assay relative to control
Format: functional
Conditions: read-out: GI

| Compound | inhibition of growth at 10 µM [%] |
| --- | --- |
| CN(C)c1ccc(/C=N/Nc2nc(Nc3ccccc3)nc(Nc3ccc(S(N)(=O)=O)cc3)n2)cc1 | 22 |

Test system: UO-31
Assay: Anticancer activity against human UO-31 cells assessed as cell growth inhibition at 10 uM incubated for 48 hrs by SRB assay relative to control
Format: functional
Conditions: read-out: GI

| Compound | inhibition of growth at 10 µM [%] |
| --- | --- |
| CN(C)c1ccc(/C=N/Nc2nc(Nc3ccccc3)nc(Nc3ccc(S(N)(=O)=O)cc3)n2)cc1 | 15 |

Test system: Hs-578T
Assay: Anticancer activity against human Hs-578T cells assessed as cell growth inhibition at 10 uM incubated for 48 hrs by SRB assay relative to control
Format: functional
Conditions: read-out: GI

| Compound | inhibition of growth at 10 µM [%] |
| --- | --- |
| CN(C)c1ccc(/C=N/Nc2nc(Nc3ccccc3)nc(Nc3ccc(S(N)(=O)=O)cc3)n2)cc1 | 37 |

Test system: T47D
Assay: Anticancer activity against human T47D cells assessed as cell growth inhibition at 10 uM incubated for 48 hrs by SRB assay relative to control
Format: functional
Conditions: read-out: GI

| Compound | inhibition of growth at 10 µM [%] |
| --- | --- |
| CN(C)c1ccc(/C=N/Nc2nc(Nc3ccccc3)nc(Nc3ccc(S(N)(=O)=O)cc3)n2)cc1 | 52 |

Test system: MDA-MB-468
Assay: Anticancer activity against human MDA-MB-468 cells assessed as cell growth inhibition at 10 uM incubated for 48 hrs by SRB assay relative to control
Format: functional
Conditions: read-out: GI

| Compound | inhibition of growth at 10 µM [%] |
| --- | --- |
| CN(C)c1ccc(/C=N/Nc2nc(Nc3ccccc3)nc(Nc3ccc(S(N)(=O)=O)cc3)n2)cc1 | 14 |
